Laboratory results: patent publication US20250326753A1, “DUAL CXCR4-BTK INHIBITORS” (X4 Pharmaceuticals, Inc., priority 2022, published 2025)
Read-outs that look alike come from different tables or passages of the source.

Key:
BTK = BTK (Homo sapiens, UniProt Q06187); test: BTK Kinase Enzyme System with ADP-Glo Kinase Assay; format: biochemical; set-up: Recombinant full-length human BTK was expressed by baculovirus in Sf9 insect cells; His (N); purchased Promega V9071; host or cells: Sf9 insect cells (baculovirus); settings: 50 μM ATP
Sequence of BTK (Q06187 whole entry): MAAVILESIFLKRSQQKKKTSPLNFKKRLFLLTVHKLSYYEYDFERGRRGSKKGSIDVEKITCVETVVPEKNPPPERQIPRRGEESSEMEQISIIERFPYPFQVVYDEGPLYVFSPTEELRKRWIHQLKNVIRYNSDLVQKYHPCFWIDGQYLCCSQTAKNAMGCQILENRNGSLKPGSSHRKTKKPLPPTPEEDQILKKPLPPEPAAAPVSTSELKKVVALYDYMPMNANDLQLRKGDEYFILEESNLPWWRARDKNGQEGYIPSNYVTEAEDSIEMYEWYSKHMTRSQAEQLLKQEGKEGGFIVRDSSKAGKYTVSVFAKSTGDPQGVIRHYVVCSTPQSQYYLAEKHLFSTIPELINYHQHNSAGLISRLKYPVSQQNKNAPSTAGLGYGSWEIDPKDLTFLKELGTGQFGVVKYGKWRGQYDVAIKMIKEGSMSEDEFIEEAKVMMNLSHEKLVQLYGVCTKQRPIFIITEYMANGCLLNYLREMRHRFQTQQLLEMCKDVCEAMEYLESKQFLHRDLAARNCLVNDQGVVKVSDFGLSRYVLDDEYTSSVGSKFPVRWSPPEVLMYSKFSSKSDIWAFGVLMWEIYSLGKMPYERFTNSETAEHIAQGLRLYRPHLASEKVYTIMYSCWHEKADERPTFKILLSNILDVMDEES
Description: Inhibition of BTK activity was evaluated using the BTK Kinase Enzyme System in combination with the ADP-Glo™ Kinase Assay Kit (V9071, Promega), according to manufacturer's instructions. Luminescence was detected on a PerkinElmer EnVision Multimode Plate Reader.
Recombinant full-length human BTK was expressed by baculovirus in Sf9 insect cells using an N-terminal His tag, MW ˜78 kDa. Substrate solution contained Poly (4:1 Glu, Tyr) Peptide Substrate. BTK Kinase Buffer consisted of: 40 mM Tris, pH 7.5; 20 mM MgCl2; 0.1 mg/ml BSA; 2 mM MnCl2; 50 μM DTT. ADP-Glo™ Reagents were thawed at ambient temperature; components of BTK Enzyme System, ADP and ATP were thawed on ice. Final assay conditions used 3 ng BTK, 50 μM ATP, and 0.2 mg/mL substrate. Compounds were tested at 11 dose points in duplicates, in 3-fold dilution with top concentration at 10 μM.
Assay performance was evaluated according to the reference compound Staurosporine, which was within 3-5 fold of published results and between different tests, with a Z′ value larger than 0.5, where applicable.

CXCR4 [1] = biological target: T1, CXCR4 (Homo sapiens, UniProt P61073); test: Intracellular CXCL-12-induced calcium mobilization assay (FLIPR), U87.CXCR4 cells; format: cell-based; set-up: expressed in transfected cells; host or cells: U87 (U87.CXCR4); settings: CXCL-12 25-50 ng/ml, read-out: IC50 CXCL-12 Ca2+ flux U87.CXCR4+
T1 sequence (P61073 whole entry): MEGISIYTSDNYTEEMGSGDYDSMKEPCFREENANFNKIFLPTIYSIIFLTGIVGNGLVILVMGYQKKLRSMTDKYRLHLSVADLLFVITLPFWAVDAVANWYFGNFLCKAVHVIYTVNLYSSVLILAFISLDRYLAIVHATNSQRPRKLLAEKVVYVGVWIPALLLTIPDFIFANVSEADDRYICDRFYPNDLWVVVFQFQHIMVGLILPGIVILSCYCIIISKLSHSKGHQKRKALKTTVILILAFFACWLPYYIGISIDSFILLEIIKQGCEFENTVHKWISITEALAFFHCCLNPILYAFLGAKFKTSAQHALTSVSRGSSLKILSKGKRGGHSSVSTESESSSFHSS
Description: Intracellular calcium mobilization induced by chemokines or chemokine-derived peptides were evaluated using a calcium responsive fluorescent probe and a FLIPR system. The CXCR-4 transfected U87 cell line (U87.CXCR4) cells were seeded in gelatine-coated black-wall 96-well plates at 20,000 cells per well and incubated for 12 hours. Cells were then loaded with the fluorescent calcium probe Fluo-2 acetoxymethyl at 4 μM final concentration in assay buffer (Hanks' balanced salt solution with 20 mM HEPES buffer and 0.2% bovine serum albumin, pH 7.4) for 45 min at 37° C. The intracellular calcium mobilization induced by the CXCL-12 (25-50 ng/ml) was then measured at 37° C. by monitoring the fluorescence as a function of time in all the wells simultaneously using a fluorometric imaging plate reader (FLIPR Tetra, Molecular Devices).

CXCR4 [2] = biological target: T1, CXCR4; test: Chemokine (CXCL12-AF647) binding inhibition assay, Jurkat cells expressing CXCR4; settings: CXCL12-AF647 25 ng/ml, read-out: IC50 CXCL-12 binding Jurkat
Description: Jurkat cells expressing CXCR4 were washed once with assay buffer (Hanks' balanced salt solution with 20 mM HEPES buffer and 0.2% bovine serum albumin, pH 7.4) and then incubated for 15 min at room temperature with the test compounds diluted in assay buffer at dose-dependent concentrations. Subsequently, CXCL12-AF647 (25 ng/ml) was added to the compound-incubated cells. The cells were incubated for 30 min at room temperature. Thereafter, the cells were washed twice in assay buffer, fixed in 1% paraformaldehyde in PBS, and analyzed on the FL4 channel of a FACSCalibur flow cytometer equipped with a 635-nm red diode laser (Becton Dickinson, San Jose, CA, USA).
The percentages of inhibition of CXCL12-AF647 binding were calculated according to the formula: [1−((MFI−MFINC)/(MFIPC−MFINC))]×100 where MFI is the mean fluorescence intensity of the cells incubated with CXCL 12-AF647 in the presence of the inhibitor, MFINC is the mean fluorescence intensity measured in the negative control (i.e., autofluorescence of unlabeled cells), and MFIPC is the mean fluorescence intensity of the positive control (i.e., cells exposed to CXCL12-AF647 alone).

[3] = biological target: T2, BTK (Bruton tyrosine kinase) (Homo sapiens, UniProt Q06187); test: BTK screening assay (33PanQinase Activity Assay, radiometric); format: biochemical; settings: Inhibition of BTK, radiometric 33PanQinase Activity Assay, 3 μM ATP, 10 concentrations in singlicate, top 10 μM; read-out: 33PanQinase ® Radiometric IC50
T2 construct: GST or His (the text leaves open which); purchased Reaction Biology Europe GmbH Lot 012,11; host or cells: Sf9 insect cells or E. coli (not resolved)
T2 sequence (Q06187 whole entry): as the sequence (Q06187 whole entry) above
Description: Inhibition of BTK activity was evaluated using a radiometric protein kinase assay (33PanQinase® Activity Assay) to measure the activity of BTK (Bruton tyrosine kinase).
Kinase assays were performed in 96-well ScintiPlates™ from Perkin Elmer (Boston, MA, USA) in a 50 μL reaction volume. The reaction cocktail was pipetted in four steps in the following order: 10 μL of non-radioactive ATP solution (in H2O); 25 μL of assay buffer/[γ-^33P]-ATP mixture; 5 μL of compound test sample in 10% DMSO; 10 μL of enzyme/substrate mixture.
BTK kinase was expressed in Sf9 insect cells or in E. coli as recombinant GST-fusion proteins or His-tagged proteins, either as full-length or enzymatically active fragments from human cDNAs, and purified by either GSH-affinity chromatography or immobilized metal. Purity was examined by SDS-PAGE/Coomassie staining, and identity confirmed by mass spectroscopy.
The reaction cocktails were incubated at 30° C. for 60 minutes. The reaction was stopped with 50 μL of 2% (v/v) H3PO4, plates were aspirated and washed two times with 200 μL 0.9% (w/v) NaCl. Incorporation of ^33Pi (counting of “cpm”) was determined with a microplate scintillation counter (Microbeta, Wallac).
The median value of the counts in wells containing assay buffer without enzyme, and without test compound was defined as “low control.” This value reflects unspecific binding of radioactivity to the plate in the absence of a protein kinase but in the presence of the substrate. The median value of the counts in wells containing assay buffer without test compound was defined as the “high control,” i.e. full activity in the absence of any inhibitor. The difference between high and low control was taken as 100% activity. Residual activity (in %) was calculated using the following formula: Res. Activity (%)=100×[(cpm of compound-low control)/(high control-low control)].
The fitting method used was a least-squares fit.

Ramos cell line = Ramos cell line viability assay (CellTiter-Glo, 72 hr); format: cell-based; settings: Homo sapiens
Description: Inhibition of non-Hodgkin lymphoma B-cell proliferation by compounds of the present invention was evaluated in a Ramos cell line. Ramos is a B lymphocyte cell line that was derived from a patient with Burkitt's Lymphoma.
Cell viability was analyzed with the CellTiter-Glo® Luminescent Cell Viability Assay Kit (G7572, Promega), according to the manufacturer's instruction. Cells were seeded into a 96-well/384-well plate and then incubated in 5% CO2 at 37° C. overnight. Compounds were added to the cells, with 9-10 dose points in duplicates in 3-fold dilution from a top concentration of 30 μM, and incubated in 5% CO2 at 37° C. for 72 hr. The 96-well/384-well plate was equilibrated at room temperature for 30 min. 50 μl/25 μl of CellTiter-Glo® Reagent was added to each well and mixed for 2 min on an orbital shaker to induce cell lysis. The 96-well/384-well plate was incubated at room temperature for 10 min to stabilize luminescent signal. Luminescence was detected on a PerkinElmer EnVision Multimode Plate Reader as relative luminescence units (RLU).

[4] = class, read-out: Ramos viability IC50

SMILES | IC50 (BTK) | IC50 (CXCR4 [1]) | IC50 (CXCR4 [2]) | IC50 [3] | IC50 (Ramos cell line; [4]) | IC50 (Ramos cell line; read-out: IC50)
Cc1cccnc1[C@H]1CCC[C@@H](c2ncccc2C)N1CCCCNC(=O)c1cc2c(-c3ccc(CNC(=O)c4ccc(C(C)(C)C)cc4)cc3)ncnc2[nH]1 [Compound I-1] | 100 to 1000 nM | > 2500 nM | 1 to 100 nM | 100 to 1000 nM |  | 
Cc1cccnc1[C@H]1CCC[C@@H](c2ncccc2C)N1CCCCN(C)C(=O)c1cc2c(-c3ccc(CNC(=O)c4ccc(C(C)(C)C)cc4)cc3)ncnc2[nH]1 [Compound I-2] | 1000 to 2500 nM | > 2500 nM | 1 to 100 nM | 1000 to 2500 nM |  | 
Cc1cc(-c2ncnc3[nH]c(C(=O)NCCN4[C@@H](c5ncccc5C)CCC[C@H]4c4ncccc4C)cc23)ccc1CNC(=O)c1ccc(C(C)(C)C)cc1 [Compound I-3] | 1 to 100 nM | > 2500 nM | 100 to 1000 nM | 1 to 100 nM |  | 
Cc1cc(-c2ncnc3[nH]c(C(=O)NCCCN4[C@@H](c5ncccc5C)CCC[C@H]4c4ncccc4C)cc23)ccc1CNC(=O)c1ccc(C(C)(C)C)cc1 [Compound I-4] | 1 to 100 nM | > 2500 nM | 1 to 100 nM | 1 to 100 nM |  | 
Cc1cc(-c2ncnc3[nH]c(C(=O)N(C)CCCN4[C@@H](c5ncccc5C)CCC[C@H]4c4ncccc4C)cc23)ccc1CNC(=O)c1ccc(C(C)(C)C)cc1 [Compound I-5] | 100 to 1000 nM | > 2500 nM | 100 to 1000 nM | 100 to 1000 nM |  | 
Cc1cc(-c2ncnc3[nH]c(C(=O)NCCCCN4[C@@H](c5ncccc5C)CCC[C@H]4c4ncccc4C)cc23)ccc1CNC(=O)c1ccc(C(C)(C)C)cc1 [Compound I-6] | 1 to 100 nM | > 2500 nM | 1 to 100 nM | 1 to 100 nM | 1500 to 2000 nM | 1550 nM
Cc1cccnc1[C@H]1CCC[C@@H](c2ncccc2C)N1CCN1CCN(C(=O)c2ccc(-c3cc4c(-c5cccc(NC(=O)c6ccc(C(C)(C)C)cc6)c5C)ncnc4[nH]3)cc2)CC1 [Compound I-7] | 1 to 100 nM | > 2500 nM | 100 to 1000 nM | 1 to 100 nM | 1500 to 2000 nM | 1620 nM
Cc1cccnc1[C@H]1CCC[C@@H](c2ncccc2C)N1CCNC1CN(C(=O)c2ccc(-c3cc4c(-c5cccc(NC(=O)c6ccc(C(C)(C)C)cc6)c5C)ncnc4[nH]3)cc2)C1 [Compound I-8] | 1 to 100 nM | 100 to 1000 nM | 1 to 100 nM | 1 to 100 nM | ≥ 4000 nM | 11100 nM
Cc1cccnc1[C@H]1CCC[C@@H](c2ncccc2C)N1CCNC1CN(C(=O)c2ccc(-c3cc4c(-c5cccc(NC(=O)c6ccccc6)c5C)ncnc4[nH]3)cc2)C1 [Compound I-9] | 100 to 1000 nM | 1 to 100 nM | 1 to 100 nM | 100 to 1000 nM | 2000 to 4000 nM | 3540 nM
Cc1cc(-c2ccnc(Nc3cnn(CCCN4[C@@H](c5ncccc5C)CCC[C@H]4c4ncccc4C)c3)n2)ccc1CNC(=O)N1CC(OC(C)C)C1 [Compound I-12, N-(4-(2-(1-(3-((2S,6R)-2,6-bis(3-methylpyridin-2-yl)piperidin-1-yl)propyl)-1H-pyrazol-4-ylamino)pyrimidin-4-yl)-2-methylbenzyl)-3-isopropoxyazetidine-1-carboxamide] | 1 to 100 nM | 1000 to 2500 nM | 1 to 100 nM | 1 to 100 nM | 2000 to 4000 nM | 2780 nM
Cc1cccnc1[C@H]1CCC[C@@H](c2ncccc2C)N1CCCCNC[C@@H]1CC[C@@H](Nc2ncnc3[nH]cc(C(=O)c4ccc(Oc5ccccc5)cc4Cl)c23)CO1 [Compound I-13, (4-((3R,6S)-6-((4-((2R,6S)-2,6-bis(3-methylpyridin-2-yl)piperidin-1-yl)butylamino)methyl)tetrahydro-2H-pyran-3-ylamino)-7H-pyrrolo[2,3-d]pyrimidin-5-yl) (2-chloro-4-phenoxyphenyl) methanone] | 100 to 1000 nM | > 2500 nM | 100 to 1000 nM | 100 to 1000 nM |  | 
Cc1cccnc1[C@H]1CCC[C@@H](c2ncccc2C)N1CCCCOC(=O)[C@@H]1CC[C@@H](Nc2ncnc3[nH]cc(C(=O)c4ccc(Oc5ccccc5)cc4Cl)c23)CO1 [Compound I-14] | 1 to 100 nM | > 2500 nM | > 2500 nM | 1 to 100 nM |  | 
Cc1cccnc1[C@H]1CCC[C@@H](c2ncccc2C)N1CCNC[C@@H]1CC[C@@H](Nc2ncnc3[nH]cc(C(=O)c4ccc(Oc5ccccc5)cc4Cl)c23)CO1 [Compound I-15, (4-((3R,6S)-6-((2-((2R,6S)-2,6-bis(3-methylpyridin-2-yl)piperidin-1-yl)ethylamino)methyl)tetrahydro-2H-pyran-3-ylamino)-7H-pyrrolo[2,3-d]pyrimidin-5-yl) (2-chloro-4-phenoxyphenyl) methanone] | 1000 to 2500 nM | > 2500 nM | 1000 to 2500 nM | 1000 to 2500 nM |  | 
Cc1cccnc1[C@H]1CCC[C@@H](c2ncccc2C)N1CCNC(=O)[C@@H]1CC[C@@H](Nc2ncnc3[nH]cc(C(=O)c4ccc(Oc5ccccc5)cc4Cl)c23)CO1 [Compound I-17] | 1 to 100 nM | > 2500 nM | 1000 to 2500 nM | 1 to 100 nM |  | 
